The text below walks through data of patent publication US6511804B1, “Selective assay for determining the identity of live microorganisms in a mixed culture” (priority 1998, dated 2003).

Read-outs that look alike come from different tables or passages of the source.

One experiment deals with E. coli strain W3110. As to the kind of experiment: Growth curves of E. coli strain W3110 in L-broth with antibiotic or BrdU. It counts as cell-based. The following applies: FIG. 3.
In a further experiment the test system is E. coli. It counts as cell-based.
Experiment [1] concerns H. actinomycetemcomitans (ATCC No. 43718). As to the kind of experiment: BrdU immunocapture/PCR antibiotic sensitivity of H. actinomycetemcomitans. It is filed as cell-based, Haemophilus actinomycetemcomitans. The note with it: anaerobic culture; FIG. 8. How it is done: H. actinomycetemcomitans is reported to be a human pathogen, and has been implicated in juvenile periodontitis. In these studies, a culture of H. actinomycetemcomitans (ATCC No. 43718; previously known as Actinobacillus actinomycetemcomitans) was grown to saturation under anaerobic conditions as in part A, above, except that hemin was not added to the medium. The culture was diluted 1:10 into fresh media, and grown for a further 4 hours under anaerobic conditions. At this point, the culture was divided into aliquots and subjected to the same testing protocol as was employed in part A of this Example, except that after the BrdU was added, the 2 hour incubation was followed for convenience by overnight storage under refrigeration at 4° C. The next day, the aliquoted cultures were lysed by the NaOH lysis protocol described above, PCR was performed, and the capture probe set forth in Table 1 for this organism was employed.

The test system of experiment [2] is T. denticola (ATCC number 35405). As to the kind of experiment: BrdU immunocapture/PCR antibiotic sensitivity of Treponema denticola. It counts as cell-based. The note with it: FIG. 9; for BrdU incorporation / immunocapture PCR signal: T. denticola; for sensitivity or resistance of T. denticola: anaerobic culture, no negative immunocapture control. How it is done: Treponema denticola was also studied using the invention. In these studies, a culture of T. denticola (ATCC number 35405) was inoculated into fresh media and grown anaerobically for 1 day in NOS media (ATCC media formulation 1494). The cultures were grown as in Part A of this Example, except that the cultures were incubated for about 8 hours prior to the addition of BrdU, they were incubated overnight after the addition of BrdU, and the samples were analyzed the next day. The PCR was conducted in the manner described above, except that a GroEL primer set was not available and a primer set for the FlgE gene (endoflagellar subunit protein) referred to FlgE001 and FlgE006 was substituted. These primers were expected to give rise to a 542 bp PCR fragment.
A general note: Uptake of a labelled nucleoside into DNA is a usual measure of proliferation.

In experiment [3] the test system is Porphyromonas gingivalis (ATCC No. 33277). As to the kind of experiment: BrdU immunocapture/PCR antibiotic sensitivity of Porphyromonas gingivalis. The note with it: anaerobic culture; 2 hours antibiotic then 2 hours BrdU; FIG. 7.
Another experiment deals with P. mirabilis. As to the kind of experiment: Ampicillin resistance of the P. mirabilis strain. It counts as cell-based, Proteus mirabilis. The note with it: P. mirabilis strain used in these studies.
In experiment [4] the test system is E. coli (C600). As to the kind of experiment: Mixed culture P. mirabilis:E. coli 50:1 with ampicillin, BrdU immunocapture and FlaA PCR. It counts as cell-based. The note with it: 50:1 P. mirabilis:E. coli; L-broth with 5, 10, or 20 μg/ml ampicillin.
Experiment [5] has as its system E. coli (C600). As to the kind of experiment: Ampicillin sensitivity of E. coli C600 as stated. It counts as cell-based.
Experiment [6] concerns E. coli strain NK5830. It is filed as cell-based. The following applies: antibiotic at final concentration 100 μg/ml, FIG. 3.
Experiment [7] has as its system E. coli strain NK5830. As to the kind of experiment: BrdU immunocapture/PCR antibiotic sensitivity assay, strain NK5830. The following applies: antibiotic 100 μg/ml, FIG. 4.

In the case of `O=c1[nH]c(=O)n([C@H]2C[C@H](O)[C@@H](CO)O2)cc1Br` [BrdU, 5-bromo-2′-deoxyuridine], in the experiment with E. coli strain W3110 (BrdU added at 2.5 hours), the “growth profile after addition of BrdU” value is reported as “did not change the growth profile”.

On to `[H]/N=C(/N)N[C@H]1[C@H](O)[C@@H](O)[C@H](O[C@@H]2O[C@@H](C)[C@](O)(C=O)[C@H]2O[C@@H]2O[C@@H](CO)[C@H](O)[C@@H](O)[C@@H]2NC)[C@@H](N/C(N)=N\[H])[C@@H]1O` [Streptomycin], for which the “effect on the growth of E. coli” value in the experiment on E. coli was “little or no effect”.

Regarding `Cc1ncc([N+](=O)[O-])n1CCO` [metronidazole], the “sensitivity or resistance of H. actinomycetemcomitans” value in [1] is given as “resistance”. Besides, in [2], the “BrdU incorporation / immunocapture PCR signal” value was “level of BrdU incorporation is at background” and the “sensitivity or resistance of T. denticola” value is on record as “sensitive”. Besides, the “sensitivity or resistance of P. gingivalis” value in experiment [3] is listed as “sensitive”.

Turning to `CC1(C)S[C@@H]2[C@H](NC(=O)[C@H](N)c3ccccc3)C(=O)N2[C@H]1C(=O)O` [Ampicillin], in the experiment on E. coli (E. coli strain W3110), the “detectable BrdU compared to the control” value is “lack of detectable BrdU compared to the control” and the “effect on cells (lysis)” value is “lysed”. For the same compound, the “ampicillin concentration to which the strain is resistant” value in the experiment on P. mirabilis is on record as “over 400 μg/ml”. For the same compound, in the experiment with E. coli (C600) [4], the “PCR products obtained (E. coli 1 kb / P. mirabilis 800 bp)” value is on record as “only the P. mirabilis PCR product”. In addition, the sensitivity to ampicillin result with E. coli (C600) [5] is on record as “extremely sensitive”.

As to `O=C(N[C@H](CO)[C@H](O)c1ccc([N+](=O)[O-])cc1)C(Cl)Cl` [Chloramphenicol], in the experiment with E. coli, the “effect on the growth of E. coli” value is listed as “significantly reduced growth”.

Consider gentamycin, for which, in the experiment on E. coli (compared to controls grown in the absence of the antibiotic), the “effect on the growth of E. coli” value is reported as “greatest effect”.

As to `CCn1cc(C(=O)O)c(=O)c2ccc(C)nc21` [nalidixic acid], in the experiment on E. coli strain W3110 (antibiotic at final concentration 100 μg/ml), the “growth (growth curve)” value is recorded as “inhibited growth”. In the experiment on E. coli strain NK5830 [6], the “growth (growth curve)” value is given as “did not cause any growth inhibition”. For the same compound, in the experiment with E. coli, the “effect on the growth of E. coli” value was “greatest effect”. For the same compound, the “sensitivity or resistance of H. actinomycetemcomitans” value in experiment [1] is “sensitivity”. Besides, in [2], the “BrdU incorporation / immunocapture PCR signal” value is “equivalent to the positive control” and the “sensitivity or resistance of T. denticola” value is “resistant”. Further, the “immunocapture/PCR signal (BrdU-labeled DNA, gel)” value in the experiment with E. coli strain NK5830 [7] is “strong positive signal”. In addition, the “sensitivity or resistance of P. gingivalis” value in experiment [3] was “resistant”.
